Source: DBAASP
Values after ≈ are worked out from the molar mass of the structure shown.

Columns and labels:
Assay in all cases: ≥ marks a high value that may be exact or a test limit, other limits are often not marked, values filed in µg/mL are converted to µM
[1] = test system: Aeromonas salmonicida CIP 103209T
[2] = test system: Bacillus megaterium CIP 51.17
[3] = test system: Enterococcus faecalis CIP 76.117
[4] = test system: Escherichia coli CIP 54.8T
[5] = test system: Listeria monocytogenes CIP 110871
[6] = test system: Salmonella typhimurium CIP 103446
[7] = test system: Staphylococcus aureus CIP 53.156
[8] = test system: Candida albicans
[9] = test system: Candida parapsilosis CGMCC 2.3989
[10] = test system: Candida tropicalis CGMCC 2.1975
[11] = test system: Enterococcus faecalis ATCC 29212
[12] = test system: Escherichia coli UB1005
[13] = test system: Pseudomonas aeruginosa ATCC 27853
[14] = test system: Pseudomonas aeruginosa PAO1
[15] = test system: Salmonella enterica subsp. enterica serovar Choleraesuis CVCC 503
[16] = test system: Salmonella enterica subsp. enterica serovar Typhimurium ATCC 14028
[17] = test system: Salmonella enterica subsp. enterica serovar Typhimurium C77-31
[18] = test system: Staphylococcus aureus ATCC 25923
[19] = test system: Staphylococcus aureus ATCC 29213
[20] = test system: Staphylococcus aureus ATCC 43300
[21] = test system: Staphylococcus epidermidis ATCC 12228
[22] = test system: Acinetobacter baumannii
[23] = test system: Escherichia coli ATCC 25922
[24] = test system: Escherichia coli K88
[25] = test system: Escherichia coli K99
[26] = test system: Escherichia coli
[27] = test system: Klebsiella pneumoniae
[28] = test system: Pseudomonas aeruginosa CICC 21625
[29] = test system: Pseudomonas aeruginosa CICC 21630
[30] = test system: Pseudomonas aeruginosa
[31] = test system: Salmonella enterica subsp. enterica serovar Pullorum C79-13

CC[C@H](C)[C@H](NC(=O)[C@H](CC(C)C)NC(=O)[C@H](Cc1cnc[nH]1)NC(=O)[C@H](Cc1ccccc1)NC(=O)[C@H](CO)NC(=O)[C@@H](NC(=O)[C@H](CO)NC(=O)CN)[C@@H](C)O)C(=O)N[C@@H](Cc1ccc(O)cc1)C(=O)N[C@@H](CC(N)=O)C(=O)N[C@@H](CCCCN)C(=O)N[C@@H](Cc1c[nH]c2ccccc12)C(=O)N[C@@H](Cc1ccccc1)C(=O)N[C@@H](C)C(=O)N[C@H](C(=O)N[C@@H](CCCCN)C(=O)N[C@@H](CCCN=C(N)N)C(=O)N[C@@H](CCCN=C(N)N)C(=O)N[C@@H](CCCN=C(N)N)C(=O)N[C@@H](CCCCN)C(=O)N[C@@H](CCCN=C(N)N)C(=O)O)C(C)C [GSTSFHLIYNKWFAVKRRRKR]
MIC [1]: 5 µM (≈ 13.3 µg/mL)
MIC [2]: 3.16 µM (≈ 8.38 µg/mL)
MIC [3]: ≥ 86.6 µM
MIC [4]: 3.16 µM (≈ 8.38 µg/mL)
MIC [5]: ≥ 35.4 µM
MIC [6]: ≥ 50 µM
MIC [7]: 5.1 µM (≈ 13.5 µg/mL)

CC(C)C[C@H](NC(=O)[C@H](CCCN=C(N)N)NC(=O)[C@H](C)NC(=O)[C@H](CS)NC(=O)[C@H](CC(C)C)NC(=O)[C@H](CCCCN)NC(=O)[C@H](CCCCN)NC(=O)[C@H](CC(C)C)NC(=O)[C@H](CCCN=C(N)N)NC(=O)[C@H](C)NC(=O)[C@H](CS)NC(=O)[C@H](CC(C)C)NC(=O)[C@H](CCCCN)NC(=O)[C@H](CCCCN)NC(=O)[C@H](CC(C)C)NC(=O)[C@H](CCCN=C(N)N)NC(=O)[C@H](C)NC(=O)[C@H](CS)NC(=O)[C@H](CC(C)C)NC(=O)[C@H](CCCCN)NC(=O)[C@H](CCCCN)NC(=O)[C@@H](N)CC(C)C)C(=O)N[C@@H](CCCCN)C(=O)N[C@@H](CCCCN)C(=O)N[C@@H](CC(C)C)C(=O)N[C@@H](CS)C(=O)N[C@@H](C)C(=O)N[C@@H](CCCN=C(N)N)C(N)=O [LKKLCARLKKLCARLKKLCARLKKLCAR]
MIC [8]: 5.66 µM (≈ 18.5 µg/mL)
MIC [9]: 4 µM (≈ 13.1 µg/mL)
MIC [10]: 2 µM (≈ 6.54 µg/mL)
MIC [11]: > 64 µM
MIC [12]: 2 µM (≈ 6.54 µg/mL)
MIC [13]: > 64 µM
MIC [14]: > 64 µM
MIC [15]: ≥ 64 µM
MIC [16]: > 64 µM
MIC [17]: ≥ 64 µM
MIC [18]: > 64 µM
MIC [19]: > 64 µM
MIC [20]: > 64 µM
MIC [21]: > 64 µM

CC[C@H](C)[C@H](N)C(=O)N[C@@H](CCCCN)C(=O)N1CCC[C@H]1C(=O)N[C@H](C(=O)N[C@H](C(=O)N[C@@H](CCCCN)C(=O)N1CCC[C@H]1C(=O)N[C@H](C(=O)N[C@H](C(=O)N[C@@H](CCCCN)C(=O)N1CCC[C@H]1C(=O)N[C@H](C(=O)N[C@H](C(=O)N[C@@H](CCCCN)C(=O)N1CCC[C@H]1C(=O)N[C@H](C(N)=O)[C@@H](C)CC)[C@@H](C)CC)[C@@H](C)CC)[C@@H](C)CC)[C@@H](C)CC)[C@@H](C)CC)[C@@H](C)CC [IKPIIKPIIKPIIKPI]
MIC [22]: ≥ 64 µM
MIC [23]: > 64 µM
MIC [24]: ≥ 64 µM
MIC [25]: ≥ 64 µM
MIC [12]: ≥ 64 µM
MIC [26]: > 64 µM
MIC [27]: > 64 µM
MIC [13]: > 64 µM
MIC [28]: ≥ 64 µM
MIC [29]: ≥ 64 µM
MIC [14]: > 64 µM
MIC [30]: > 64 µM
MIC [31]: ≥ 64 µM
MIC [16]: > 64 µM
MIC [17]: ≥ 64 µM
